From ChEMBL document CHEMBL5137114, “Discovery of IHMT-MST1-58 as a Novel, Potent, and Selective MST1 Inhibitor for the Treatment of Type 1/2 Diabetes” (J Med Chem, 2022)
Activity calls are given as the source filed them. No cut-off for these calls is given here.

What was measured:
[1] = target: T1, Serine/threonine-protein kinase Nek3 (Homo sapiens) (UniProt P51956); experiment: Inhibition of recombinant full length N-terminal GST -tagged human NEK3 expressed in baculovirus expression system using S2 as substrate incubated for 2 hrs by HTRF assay relative to control; settings: Sf9, concentration not given here
T1 sequence (whole entry): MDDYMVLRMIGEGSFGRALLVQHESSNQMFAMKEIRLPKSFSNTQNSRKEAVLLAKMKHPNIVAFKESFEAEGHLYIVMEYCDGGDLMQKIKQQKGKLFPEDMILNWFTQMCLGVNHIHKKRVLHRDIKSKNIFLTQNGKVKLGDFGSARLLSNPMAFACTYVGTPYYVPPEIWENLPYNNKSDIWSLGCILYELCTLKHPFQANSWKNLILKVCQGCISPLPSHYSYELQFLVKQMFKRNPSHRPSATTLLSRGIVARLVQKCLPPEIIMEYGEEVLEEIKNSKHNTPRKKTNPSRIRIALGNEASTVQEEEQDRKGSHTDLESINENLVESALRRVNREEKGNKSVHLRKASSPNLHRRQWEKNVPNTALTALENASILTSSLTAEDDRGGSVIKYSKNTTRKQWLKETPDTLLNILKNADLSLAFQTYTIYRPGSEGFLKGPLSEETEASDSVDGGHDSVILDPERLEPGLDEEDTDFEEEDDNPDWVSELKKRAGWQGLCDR

RAW264.7 = experiment: Inhibition of MST1 in mouse RAW264.7 cells assessed as reduction in H2O2-stimulated MOB1 phosphorylation at T35 residue preincubated for 2 hrs followed by H2O2 addition for 30 mins by Western blotting analysis; assay type: cell-based; settings: dose 0.1-10 µM, time 2.5 hrs, DDE = dose-dependent effect
[2] = Cmax in mouse at 1 mg/kg, iv measured up to 12 hrs by LC-MS/MS analysis; assay type: ADME, organism-based; parameters: time < 12 hrs, dose 1 mg/kg, route iv; settings: in vivo
[3] = Cmax in Sprague-Dawley rat at 1 mg/kg, iv measured up to 12 hrs by LC-MS/MS analysis; assay type: ADME, organism-based; parameters: time < 12 hrs, dose 1 mg/kg, route iv; settings: in vivo
[4] = AUC (0 to t) in Sprague-Dawley rat at 10 mg/kg, po measured up to 24 hrs by LC-MS/MS analysis; assay type: ADME, organism-based; parameters: time < 24 hrs, dose 10 mg/kg, route po; settings: in vivo
[5] = Cmax in Beagle dog at 1 mg/kg, iv measured up to 12 hrs by LC-MS/MS analysis; assay type: ADME, organism-based, Canis lupus familiaris; parameters: dose 1 mg/kg, time < 12 hrs, route iv; settings: in vivo
[6] = Half life in Beagle dog at 10 mg/kg, po measured up to 24 hrs by LC-MS/MS analysis; assay type: ADME, organism-based, Canis lupus familiaris; settings: in vivo
[7] = Oral bioavailability in Beagle dog at 10 mg/kg measured up to 24 hrs by LC-MS/MS analysis; assay type: ADME, organism-based, Canis lupus familiaris; settings: in vivo
[8] = Cmax in mouse Pancreas at 50 mg/kg, po measured up to 24 hrs by LC-MS/MS analysis; assay type: ADME, organism-based; parameters: dose 50 mg/kg, time < 24 hrs, route po
Mus musculus [9] = experiment: Antidiabetic activity against 8 hrs fasted multi low dose STZ-induced C57BL/6J mouse model of type 1 diabetes assessed as decrease in fasting blood glucose level at 50 mg/kg, po administered measured immediately (reference value: 19.3 mmol/L); assay type: functional
Mus musculus [10] = experiment: Antidiabetic activity against 8 hrs fasted multi low dose STZ-induced C57BL/6J mouse model of type 1 diabetes assessed as decrease in fasting blood glucose level at 50 mg/kg, po administered for 77 days (reference value: 22.3 mmol/L); assay type: functional; settings: time 77 day
Mus musculus [11] = experiment: Antidiabetic activity against 8 hrs fasted multi low dose STZ-induced C57BL/6J mouse model of type 1 diabetes assessed as decrease in fasting blood glucose level at 50 mg/kg, po administered measured immediately in presence of metformin (reference value: 19.3 mmol/L); assay type: functional
Mus musculus [12] = experiment: Antidiabetic activity against multi low dose STZ-induced C57BL/6J mouse model of type 1 diabetes assessed as increase in water consumption at 50 mg/kg, po administered upto 79 days in presence of metformin; assay type: functional, organism-based; settings: time <= 79.0 day
Mus musculus [13] = experiment: Antidiabetic activity in multi low dose STZ-induced C57BL/6J mouse model of type 1 diabetes assessed as reduction in HbA1c level at 50 mg/kg, po qd (reference value: 7.6 %); assay type: functional; parameters: scale not given: the % may be the effect or the level left
[14] = Toxicity in multi low dose STZ-induced C57BL/6J mouse model of type 1 diabetes assessed as effect on pancreas morphology at 50 mg/kg, po qd by H and E staining based analysis; assay type: organism-based; settings: in vivo
[15] = Toxicity in multi low dose STZ-induced C57BL/6J mouse model of type 1 diabetes assessed as effect on pancreas morphology at 50 mg/kg, po qd in presence of metformin by H and E staining based analysis; assay type: organism-based; settings: in vivo
Mus musculus [16] = experiment: Antidiabetic activity against 12 hrs fasted high fat diet-STZ-induced C57BL/6J mouse model of type 2 diabetes assessed as decrease in fasting blood glucose level at 50 mg/kg, po qd measured immediately (reference value: 20.3 mmol/L); assay type: functional
Mus musculus [17] = experiment: Antidiabetic activity against 12 hrs fasted high fat diet-STZ-induced C57BL/6J mouse model of type 2 diabetes assessed as decrease in fasting blood glucose level at 50 mg/kg, po qd administered measured immediately in presence of metformin (reference value: 20.3 mmol/L); assay type: functional
Mus musculus [18] = experiment: Antidiabetic activity against high fat diet-STZ-induced C57BL/6J mouse model of type 2 diabetes assessed as improvement in water consumption at 50 mg/kg, po qd administered upto 106 days in presence of metformin; assay type: functional, organism-based; settings: time <= 106.0 day
Mus musculus [19] = experiment: Antidiabetic activity in high fat diet-STZ-induced C57BL/6J mouse model of type 2 diabetes assessed as reduction in HbA1c level at 250 mg/kg, po qd administered in presence of metformin (reference value: 8.6 %); assay type: functional; parameters: scale not given: the % may be the effect or the level left
[20] = Toxicity in high fat diet-STZ-induced C57BL/6J mouse model of type 2 diabetes assessed as effect on pancreas morphology at 50 mg/kg, po qd by H and E staining based analysis; assay type: organism-based; settings: in vivo
[21] = Toxicity in multi low dose STZ-induced C57BL/6J mouse model of Type 1 diabetes assessed as effect on body weight at 50 mg/kg, po qd; assay type: organism-based; settings: in vivo
INS1 [22] = experiment: Protection against IFN-gamma-induced cell damage in rat INS1 cells assessed as increase in cell survival at 0.03 to 0.3 uM incubated for 48 hrs by Cell Titer-Glo assay; assay type: functional, cell-based; settings: dose 0.03-0.3 µM
INS1 [23] = experiment: Protection against TNF-alpha-induced damage in rat INS1 cells assessed as increase in cell survival at 0.03 to 0.3 uM incubated for 48 hrs by Cell Titer-Glo assay; assay type: functional, cell-based; settings: dose 0.03-0.3 µM
RIN-m5F = experiment: Protection against IL-1beta-induced cell damage in rat RIN-m5F cells assessed as increase in cell survival at 0.03 to 0.3 uM incubated for 48 hrs by Cell Titer-Glo assay; assay type: functional, cell-based; settings: dose 0.03-0.3 µM
[24] = tested on: Serine/threonine-protein kinase 4 (Rattus norvegicus); experiment: Inhibition of INF-gamma-stimulated MST1 phosphorylation in rat INS1 cells incubated for 12 hrs by Western blotting analysis; settings: dose 0.1-10 µM, DDE = dose-dependent effect
[25] = tested on: Serine/threonine-protein kinase 4 (Rattus norvegicus); experiment: Inhibition of TNF-alpha-stimulated MST1 in rat RIN-m5F cells assessed as reduction in MOB1 autophosphorylation incubated for 12 hrs by Western blotting analysis; settings: dose 0.1-10 µM, DDE = dose-dependent effect

With `Cc1ccccc1C1C(=O)N(C)c2cnc(Nc3ccc(S(N)(=O)=O)cc3)nc2N1C` (configuration not stated) the inhibition [1] was 0.85%, the inhibition (RAW264.7) was “Dde” and the Cmax [2] was 1240 ng/mL. It also gave a Cmax [3] of 944 ng/mL, an AUCt [4] of 4858 ng·h/mL and a Cmax [5] of 467 ng/mL. The half-life [6] was 347 min, the bioavailability [7] was 106% and the Cmax [8] was 12200 ng/mL. It also gave an Activity (Mus musculus [9]) of 19.4 mmol/L, an Activity (Mus musculus [10]) of 14.2 mmol/L and an Activity (Mus musculus [11]) of 19.3 mmol/L. The Activity (Mus musculus [12]) was “Active”, the Activity (Mus musculus [13]) was 6.7% and the Activity [14] was “Non-Toxic”. For the same molecule, the Activity [15] was “Non-Toxic”, the Activity (Mus musculus [16]) was 20.2 mmol/L and the Activity (Mus musculus [17]) was 20.3 mmol/L. The Activity (Mus musculus [18]) was “Active”, the Activity (Mus musculus [19]) was 5.9% and the Activity [20] was “Non-Toxic”. For the same molecule, the Activity [21] was “Non-Toxic”, the Activity (INS1 [22]) was “Active” and the Activity (INS1 [23]) was “Active”. The Activity (RIN-m5F) was “Active”, the inhibition [24] was “Dde” and the inhibition [25] was “Dde”.
